Measurements reported in PubChem BioAssay AID248 (DTP/NCI, 2004).
Several values for one entry are separate records, joined by “and”; a condition that tells them apart may be missing. Identical values can stand only once. Inconclusive results and toxic doses are left out. No stated cut-off is given here; in the data, active means T/C of 150% or more; inactive means T/C below 125%.

Tested on: L1210 leukemia ip in BDF1 mice, survival T/C
Assay: NCI In Vivo Anticancer Drug Screen. Data for tumor model L1210 Leukemia (intraperitoneal) in B6D2F1 (BDF1) mice
Conditions: endpoint: mean survival time, higher = longer survival
In short: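 Read-out is survival time, reported as the treated-group measurement over the vehicle-control measurement.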

[1] = dose: 100.0 mg/kg/injection, schedule: Q01DX009 (ip), vehicle: Klucel (hydroxypropylcellulose) (HPC)
[2] = dose: 100.0 mg/kg/injection, schedule: Q04DX003 (ip), vehicle: Klucel (hydroxypropylcellulose) (HPC)
[3] = dose: 200.0 mg/kg/injection, schedule: Q01DX009 (ip), vehicle: Klucel (hydroxypropylcellulose) (HPC)
[4] = dose: 200.0 mg/kg/injection, schedule: Q04DX003 (ip), vehicle: Klucel (hydroxypropylcellulose) (HPC)
[5] = dose: 400.0 mg/kg/injection, schedule: Q01DX009 (ip), vehicle: Klucel (hydroxypropylcellulose) (HPC)
[6] = dose: 400.0 mg/kg/injection, schedule: Q04DX003 (ip), vehicle: Klucel (hydroxypropylcellulose) (HPC)
[7] = dose: 50.0 mg/kg/injection, schedule: Q01DX009 (ip), vehicle: Klucel (hydroxypropylcellulose) (HPC)
[8] = dose: 100.0 mg/kg/injection, schedule: Q01DX001 (ip), vehicle: Klucel (hydroxypropylcellulose) (HPC)
[9] = dose: 200.0 mg/kg/injection, schedule: Q01DX001 (ip), vehicle: Klucel (hydroxypropylcellulose) (HPC)
[10] = dose: 100.0 mg/kg/injection, schedule: Q01DX001 (ip), vehicle: saline
[11] = dose: 200.0 mg/kg/injection, schedule: Q01DX001 (ip), vehicle: saline
[12] = dose: 400.0 mg/kg/injection, schedule: Q01DX001 (ip), vehicle: saline
[13] = dose: 75.0 mg/kg/injection, schedule: Q01DX001 (ip), vehicle: saline
[14] = dose: 150.0 mg/kg/injection, schedule: Q01DX001 (ip), vehicle: saline
[15] = dose: 100.0 mg/kg/injection, schedule: Q01DX009 (ip), vehicle: saline with Tween-80
[16] = dose: 200.0 mg/kg/injection, schedule: Q01DX009 (ip), vehicle: saline with Tween-80
[17] = dose: 400.0 mg/kg/injection, schedule: Q04DX002 (ip), vehicle: saline with Tween-80
[18] = dose: 100.0 mg/kg/injection, schedule: Q04DX003 (ip), vehicle: saline with Tween-80
[19] = dose: 200.0 mg/kg/injection, schedule: Q04DX003 (ip), vehicle: saline with Tween-80
[20] = dose: 50.0 mg/kg/injection, schedule: Q01DX009 (ip), vehicle: saline with Tween-80
[21] = dose: 300.0 mg/kg/injection, schedule: Q01DX001 (ip), vehicle: saline

Measured: T/C

Cc1ccc(NC(=O)c2ccccc2)cc1Cl
inactive: [1] 98 % of control | [2] 106 % of control | [3] 95 % of control | [4] 101 % of control | [5] 96 % of control | [6] 97 % of control

Cc1ccc(NC(=O)c2ccc([N+](=O)[O-])cc2)cc1Cl
inactive: dose: 25.0 mg/kg/injection, schedule: Q01DX009 (ip), vehicle: Klucel (hydroxypropylcellulose) (HPC) 95 % of control | [7] 103 % of control | [8] 95 % of control | [1] 103 % of control | [2] 93 % of control | [9] 106 % of control | [4] 95 % of control | dose: 400.0 mg/kg/injection, schedule: Q01DX001 (ip), vehicle: Klucel (hydroxypropylcellulose) (HPC) 98 % of control | [6] 98 % of control

c1ccc([B-](c2ccccc2)(c2ccccc2)[C+]2CCCCC2)cc1 (tested in a mixture with another compound)
inactive: [10] 105 % of control | [11] 108 % of control | [12] 108 % of control

Nc1nc(-c2ccccc2N=NN2CCCCC2)nc2ccccc12
inactive: [7] 107 % of control | [1] 118 % of control | [2] 109 % of control | [3] 107 % of control | [4] 104 % of control

CNC(=O)Oc1cc2c(cc1C)C(C)(C)CCC2(C)C
inactive: [1] 96 % of control | [3] 96 % of control | [5] 91 % of control

CCOC(=O)/C=C(\C)C(C)(C)C(C)=O
inactive: [10] 90 % of control | [11] 101 % of control | [12] 98 % of control

O=C(CBr)c1cccnc1
inactive: dose: 6.25 mg/kg/injection, schedule: Q01DX009 (ip), vehicle: saline 98 % of control | dose: 12.5 mg/kg/injection, schedule: Q01DX009 (ip), vehicle: saline 98 % of control

Cc1ccc(C(=O)/C=C/c2ccco2)c(C)c1
inactive: dose: 100.0 mg/kg/injection, schedule: Q04DX002 (ip), vehicle: Klucel (hydroxypropylcellulose) (HPC) 99 % of control | dose: 200.0 mg/kg/injection, schedule: Q04DX002 (ip), vehicle: Klucel (hydroxypropylcellulose) (HPC) 86 % of control | dose: 400.0 mg/kg/injection, schedule: Q04DX002 (ip), vehicle: Klucel (hydroxypropylcellulose) (HPC) 99 % of control

CC(C)OB(OC(C)C)OC(C)C
inactive: [1] 103 % of control | [2] 104 % of control | [3] 103 % of control | [4] 95 % of control | [5] 102 % of control | [6] 100 % of control

Cc1nc(N)sc1N=Nc1cc(Br)ccc1Br
inactive: [13] 97 % of control | [14] 114 % of control

Cc1cc(S(=O)(=O)c2cc(C)c(O)c(C(N)=O)c2)cc(C(N)=O)c1O
inactive: dose: 100.0 mg/kg/injection, schedule: Q04DX002 (ip), vehicle: carboxymethylcellulose (CMC) 95 % of control | dose: 200.0 mg/kg/injection, schedule: Q04DX002 (ip), vehicle: carboxymethylcellulose (CMC) 103 % of control | dose: 400.0 mg/kg/injection, schedule: Q04DX002 (ip), vehicle: carboxymethylcellulose (CMC) 98 % of control

O=C(NC(=S)Nc1ccc([N+](=O)[O-])cc1Br)c1ccc(Cl)cc1Cl
inactive: [15] 89 % of control and 90 % of control | dose: 100.0 mg/kg/injection, schedule: Q04DX002 (ip), vehicle: saline with Tween-80 87 % of control and 90 % of control | [16] 93 % of control and 90 % of control | dose: 200.0 mg/kg/injection, schedule: Q04DX002 (ip), vehicle: saline with Tween-80 86 % of control and 92 % of control | dose: 400.0 mg/kg/injection, schedule: Q01DX009 (ip), vehicle: saline with Tween-80 93 % of control and 95 % of control | [17] 104 % of control and 92 % of control

COc1cc(C(C)=O)cc([N+](=O)[O-])c1O
inactive: [18] 107 % of control | [19] 105 % of control

CC1=C(Br)C(=O)NC1=O
inactive: [18] 107 % of control | [19] 101 % of control | dose: 400.0 mg/kg/injection, schedule: Q04DX003 (ip), vehicle: saline with Tween-80 107 % of control

CCc1cc(Cl)ccc1OCC(=O)O
inactive: [15] 97 % of control | [16] 105 % of control

O=c1c(N=Nc2ccc(Cl)cc2)c(O)n(-c2ccc(Cl)cc2)c(=S)n1-c1ccccc1
inactive: dose: 50.0 mg/kg/injection, schedule: Q01DX001 (ip), vehicle: Klucel (hydroxypropylcellulose) (HPC) 108 % of control | [8] 94 % of control | [9] 100 % of control

CCCC(=O)c1ccc2oc3ccccc3c2c1
inactive: [1] 100 % of control | [2] 102 % of control | [3] 94 % of control | [4] 102 % of control | [5] 96 % of control | [6] 98 % of control

CC(C)(C)C(C)(O)C(=O)O (stereo unspecified)
inactive: [20] 93 % of control | [15] 97 % of control | [16] 93 % of control

CP1(=S)CCC(O)(c2ccccc2)CC1 (stereo unspecified)
inactive: [17] 88 % of control

CSc1cc(=O)n2c3ccccc3c3ccnc1c32
inactive: dose: 5.0 mg/kg/injection, schedule: Q01DX001 (ip), vehicle: saline 98 % of control | dose: 10.0 mg/kg/injection, schedule: Q01DX001 (ip), vehicle: saline 98 % of control | dose: 20.0 mg/kg/injection, schedule: Q01DX001 (ip), vehicle: saline 100 % of control | dose: 40.0 mg/kg/injection, schedule: Q01DX001 (ip), vehicle: saline 98 % of control | dose: 80.0 mg/kg/injection, schedule: Q01DX001 (ip), vehicle: saline 100 % of control | [10] 120 % of control

O=[N+]([O-])c1cc2cnn(CO)c2cc1[N+](=O)[O-]
inactive: [10] 95 % of control | [11] 95 % of control | [12] 100 % of control

O=C(O)C12CCCC(CCC1)C2=O
inactive: [13] 100 % of control | [14] 102 % of control | [21] 100 % of control

COc1c(N)cc2c(c1C)OCOC2
inactive: [10] 97 % of control | [11] 100 % of control | [12] 105 % of control

C[n+]1cccc2ccccc21
inactive: dose: 12.5 mg/kg/injection, schedule: Q04DX003 (ip), vehicle: saline 96 % of control | dose: 25.0 mg/kg/injection, schedule: Q04DX003 (ip), vehicle: saline 93 % of control and 91 % of control | dose: 50.0 mg/kg/injection, schedule: Q04DX003 (ip), vehicle: saline 93 % of control and 95 % of control | dose: 100.0 mg/kg/injection, schedule: Q04DX003 (ip), vehicle: saline 93 % of control and 105 % of control

CCOC(=O)C(=N\Nc1cc(C)ccc1C)/C(C)=N\NC(N)=S
inactive: [13] 87 % of control | [14] 97 % of control | [21] 97 % of control

c1ccc2c(c1)-c1cccc3cccc-2c13
inactive: [1] 95 % of control | [2] 95 % of control | [3] 95 % of control | [4] 95 % of control | [5] 101 % of control | [6] 101 % of control

CCCCc1cccc2c1OCO2
inactive: [10] 103 % of control | [11] 103 % of control

C=CCSC(C)CC (stereo unspecified)
inactive: [20] 95 % of control | [15] 101 % of control | [18] 96 % of control | [16] 92 % of control | [19] 96 % of control
